In patent publication US8440710B2, “HSL inhibitors useful in the treatment of diabetes” (Hoffmann-La Roche Inc., priority 2009, dated 2013) one finds IC50 data, which are given here for 25 compounds.

The structures appear in SMILES notation. pIC50: −log10 of the molar value.

This experiment concerns the target T1, human HSL (Homo sapiens, UniProt Q05469).
T1 construct: generate a full length human HSL ORF with a 3′-His6 tag; made in house; host or cells: High 5 insect cells (baculovirus, pFast-BAC)
T1 sequence (Q05469 1-1076): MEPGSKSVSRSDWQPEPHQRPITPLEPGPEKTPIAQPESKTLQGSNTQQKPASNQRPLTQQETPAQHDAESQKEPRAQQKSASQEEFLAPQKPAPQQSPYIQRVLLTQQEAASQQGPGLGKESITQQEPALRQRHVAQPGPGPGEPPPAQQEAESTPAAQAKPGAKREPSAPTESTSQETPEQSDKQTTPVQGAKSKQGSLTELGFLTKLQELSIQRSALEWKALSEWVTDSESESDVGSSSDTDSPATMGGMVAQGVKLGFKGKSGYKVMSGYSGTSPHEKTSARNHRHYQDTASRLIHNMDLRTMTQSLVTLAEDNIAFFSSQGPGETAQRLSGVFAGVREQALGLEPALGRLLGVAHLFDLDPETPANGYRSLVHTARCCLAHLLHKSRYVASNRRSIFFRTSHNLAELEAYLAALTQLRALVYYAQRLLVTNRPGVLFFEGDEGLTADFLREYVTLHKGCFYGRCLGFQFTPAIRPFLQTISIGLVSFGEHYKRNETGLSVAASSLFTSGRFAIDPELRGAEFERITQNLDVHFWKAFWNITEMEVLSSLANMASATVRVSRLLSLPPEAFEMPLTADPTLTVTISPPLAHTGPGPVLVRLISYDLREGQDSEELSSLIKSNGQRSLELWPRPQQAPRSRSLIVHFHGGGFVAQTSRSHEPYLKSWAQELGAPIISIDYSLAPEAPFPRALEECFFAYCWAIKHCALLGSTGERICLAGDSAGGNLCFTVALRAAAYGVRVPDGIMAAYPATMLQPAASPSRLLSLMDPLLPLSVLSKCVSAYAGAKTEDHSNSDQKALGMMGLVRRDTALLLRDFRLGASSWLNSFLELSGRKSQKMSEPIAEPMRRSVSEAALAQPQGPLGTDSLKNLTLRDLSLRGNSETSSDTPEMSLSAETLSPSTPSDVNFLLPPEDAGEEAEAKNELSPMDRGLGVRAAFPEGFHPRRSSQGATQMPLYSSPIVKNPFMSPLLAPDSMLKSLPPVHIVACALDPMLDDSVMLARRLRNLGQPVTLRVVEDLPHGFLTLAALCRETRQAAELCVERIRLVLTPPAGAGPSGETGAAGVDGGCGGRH
Kind of experiment: Human Hormone-Sensitive Lipase (HSL) enzyme inhibition assay (colorimetric, DMPT substrate). Format: biochemical. The conditions noted are these: human full length HSL-His6, 2,3-dimercapto-1-propanol tributyrate substrate, 37° C. 20 minutes, absorbance at 405 nm; read-out: HSL hum IC50. In a few lines: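 Full-length human HSL with C-terminal His6, expressed in baculovirus-infected High 5 cells and Ni-NTA purified, was added (15 ug/ml stock) to 1.5 mM DMPT in 100 mM MOPS pH 7.2, 0.2 mg/ml fatty acid-free BSA containing compound. After 20 min at 37 °C, DTNB with SDS/Triton X-100 was added; A405 read after 15 min at RT.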
With `CC(C)c1ccc(N2CC[C@]3(CC[C@@](O)(COCC(F)(F)F)CC3)C2=O)cc1` [Example 216, (5α,8α)-8-hydroxy-2-(4-isopropylphenyl)-8-((2,2,2-trifluoroethoxy)methyl)-2-aza-spiro[4.5]decan-1-one], the negative-log IC50 (pIC50) was 8.00.
In the case of `COC[C@]1(O)CC[C@@]2(CCN(c3ccc(OC(F)(F)F)cc3)C2=O)CC1` [Example 115, (5α,8β)-8-Hydroxy-8-methoxymethyl-2-(4-trifluoromethoxy-phenyl)-2-aza-spiro[4.5]decan-1-one], the pIC50 was 6.17.
As for `CCC[C@]1(O)CC[C@@]2(CCN(c3ccc(C(O)C(F)(F)F)cc3)C2=O)CC1` (stereo partly drawn) [Example 134, (5α,8β)-8-Hydroxy-8-propyl-2-(4-(2,2,2-trifluoro-1-hydroxyethyl)phenyl)-2-aza-spiro[4.5]decan-1-one], the negative logarithm of the IC50 (pIC50) is 5.93.
Take `C[C@@H](Oc1ccc(N2CC[C@]3(CC[C@@](O)(COCc4ccccc4)CC3)C2=O)cc1)C(F)(F)F` [Example 144, (5α,8α)-8-(Benzyloxymethyl)-8-hydroxy-2-[4-((R)-2,2,2-trifluoro-1-methyl-ethoxy)-phenyl]-2-aza-spiro[4.5]decan-1-one]: the pIC50 was 8.00.
`CC(C)[C@]1(O)CC[C@]2(CCN(c3ccc([C@@H](O)C(F)(F)F)cc3)C2=O)CC1` [Example 135, (5α,8α)-8-Hydroxy-8-isopropyl-2-[4-((R)-2,2,2-trifluoro-1-hydroxy-ethyl)-phenyl]-2-aza-spiro[4.5]decan-1-one]: the pIC50 was 7.70.
As for `CCC[C@]1(O)CC[C@@]2(CCN(c3ccc(CC(F)(F)F)cc3)C2=O)CC1` [Example 82, (5α,8β)-8-Hydroxy-8-propyl-2-[4-(2,2,2-trifluoro-ethyl)-phenyl]-2-aza-spiro[4.5]decan-1-one], the figure is 6.34; as for `CC[C@]1(O)CC[C@]2(CCN(c3ccc(OC(F)(F)F)cc3)C2=O)CC1` [Example 60, (5α,8α)-8-Ethyl-8-hydroxy-2-(4-trifluoromethoxy-phenyl)-2-aza-spiro[4.5]decan-1-one], 7.52; as for `CCC[C@]1(O)CC[C@]2(CCN(c3ccc(C(O)C(F)F)cc3)C2=O)CC1` (stereo partly drawn) [Example 195, (5α,8α)-2-(4-(2,2-difluoro-1-hydroxyethyl)phenyl)-8-hydroxy-8-propyl-2-aza-spiro[4.5]decan-1-one], 6.96.
For `CCC[C@]1(O)CC[C@@]2(CCN(c3ccc(C4CC4)cc3)C2=O)CC1` [Example 76, (5α,8β)-2-(4-Cyclopropyl-phenyl)-8-hydroxy-8-propyl-2-aza-spiro[4.5]decan-1-one], the pIC50 is 6.72.
Take `C[C@H](Oc1ccc(N2CC[C@]3(CC[C@](O)(COCC(F)(F)F)CC3)C2=O)cc1)C(F)(F)F` [Example 282, (5α,8β)-8-Hydroxy-8-(2,2,2-trifluoro-ethoxymethyl)-2-[4-((S)-2,2,2-trifluoro-1-methyl-ethoxy)-phenyl]-2-aza-spiro[4.5]decan-1-one]: the pIC50 was 6.40.
Next, `COC[C@]1(O)CC[C@]2(CCN(c3ccc(O[C@H](C)C(F)(F)F)cc3)C2=O)CC1` [Example 147, (5α,8α)-8-Hydroxy-8-(methoxymethyl)-2-[4-((R)-2,2,2-trifluoro-1-methyl-ethoxy)-phenyl]-2-aza-spiro[4.5]decan-1-one]: 7.52; `CCCO[C@H](c1ccc(N2CC[C@]3(CC[C@@](O)(COC)CC3)C2=O)cc1)C(F)(F)F` [Example 141, (5α,8α)-8-Hydroxy-8-(methoxymethyl)-2-(4-((R)-2,2,2-trifluoro-1-propoxyethyl)phenyl)-2-aza-spiro[4.5]decan-1-one]: 7.52; `O=C1N(c2ccc(OC(F)(F)F)cc2)CC[C@]12CC=CCC2` [Example 50, 2-(4-Trifluoromethoxy-phenyl)-2-aza-spiro[4.5]dec-7-en-1-one]: 6.70.
Take `O=C1N(c2ccc(OCC(F)(F)F)cc2)CC[C@]12CC[C@@](O)(COCC(F)(F)F)CC2` [Example 233, (5α,8α)-8-Hydroxy-8-(2,2,2-trifluoro-ethoxymethyl)-2-[4-(2,2,2-trifluoro-ethoxy)-phenyl]-2-aza-spiro[4.5]decan-1-one]: the negative logarithm of the IC50 (pIC50) is 7.70.
Consider `O=C(NCCc1ccccc1)O[C@H]1CC[C@@]2(CCN(c3ccc(OC(F)(F)F)cc3)C2=O)CC1` [Example 18, Phenethyl-carbamic acid [(5α,8β)-1-oxo-2-(4-trifluoromethoxy-phenyl)-2-aza-spiro[4.5]dec-8-yl]ester], for which the pIC50 was 7.22.
For `O=C1N(c2ccc(OCC(F)(F)F)cc2)CC[C@]12CC[C@](O)(COc1ccccn1)CC2` [Example 278, (5α,8β)-8-Hydroxy-8-(pyridin-2-yloxymethyl)-2-[4-(2,2,2-trifluoro-ethoxy)-phenyl]-2-aza-spiro[4.5]decan-1-one], the pIC50 was 7.70.
Consider `C[C@H](Oc1ccc(N2CC[C@]3(CC[C@](O)(COCC(F)F)CC3)C2=O)cn1)C(F)(F)F` [Example 296, (5α,8β)-8-(2,2-Difluoro-ethoxymethyl)-8-hydroxy-2-[6-((S)-2,2,2-trifluoro-1-methyl-ethoxy)-pyridin-3-yl]-2-aza-spiro[4.5]decan-1-one], for which the pIC50 is 6.26.
For `Cn1nncc1[C@]1(O)CC[C@]2(CCN(c3ccc(C(F)(F)F)cc3)C2=O)CC1` [Example 215, (5α,8α)-8-Hydroxy-8-(3-methyl-3H-[1,2,3]triazol-4-yl)-2-(4-trifluoromethyl-phenyl)-2-aza-spiro[4.5]decan-1-one], the pIC50 was 6.23.
Turning to `CC(C)(C)c1ccc(N2CCC3(CCC(O)(Cn4ccccc4=O)CC3)C2=O)cc1` (stereo not drawn) [Example 353, (5α,8α)-2-(4-tert-Butyl-phenyl)-8-hydroxy-8-(2-oxo-2H-pyridin-1-ylmethyl)-2-aza-spiro[4.5]decan-1-one], the negative-log IC50 (pIC50) is 8.00.
Regarding `CCc1ccc(N2CC[C@]3(CC[C@H](O)CC3)C2=O)cc1` [Example 32, (5α,8α)-2-(4-Ethyl-phenyl)-8-hydroxy-2-aza-spiro[4.5]decan-1-one], the pIC50 was 6.05.
Take `O=C1N(c2ccc(C3CC3)cc2)CC[C@]12CC[C@H](O)CC2` [Example 39, (5α,8α)-2-(4-Cyclopropyl-phenyl)-8-hydroxy-2-aza-spiro[4.5]decan-1-one]: the pIC50 is 6.25.
As for `C=C(C)[C@]1(O)CC[C@]2(CCN(c3ccc(OCC(F)(F)F)cc3)C2=O)CC1` [Example 105, (5α,8α)-8-Hydroxy-8-(prop-1-en-2-yl)-2-(4-(2,2,2-trifluoroethoxy)phenyl)-2-aza-spiro[4.5]decan-1-one], the figure is 7.52.
Next, `CCCOC[C@]1(O)CC[C@]2(CCN(c3ccc(C4CC4)cc3)C2=O)CC1` [Example 272, (5α,8α)-2-(4-Cyclopropyl-phenyl)-8-hydroxy-8-propoxymethyl-2-aza-spiro[4.5]decan-1-one]: 7.70; `CCOC[C@]1(O)CC[C@@]2(CCN(c3ccc(O[C@@H](C)C(F)(F)F)nc3)C2=O)CC1` [Example 248, (5α,8β)-8-Ethoxymethyl-8-hydroxy-2-[6-((S)-2,2,2-trifluoro-1-methyl-ethoxy)-pyridin-3-yl]-2-aza-spiro[4.5]decan-1-one]: 6.47; `O=C1CCCN1C[C@]1(O)CC[C@]2(CCN(c3ccc(OCC(F)(F)F)cc3)C2=O)CC1` [Example 367, (5α,8α)-8-Hydroxy-8-(2-oxo-pyrrolidin-1-ylmethyl)-2-[4-(2,2,2-trifluoro-ethoxy)-phenyl]-2-aza-spiro[4.5]decan-1-one]: 7.10.
